US8071778B2, “Substituted heterocyclic ethers and their use in CNS disorders” (Bristol-Myers Squibb Company, priority 2006, dated 2011)
Read-outs that look alike come from different tables or passages of the source.

Columns and labels:
[1] = target: T1, NK-1 (Homo sapiens, UniProt P25103); test: NK1 radioligand binding assay; conditions: U373 membrane preparation, [125I]Substance P
T1 construct: endogenous in cells; host or cells: U373 cells (crude membranes)
Experimental: (§1) NK-1 Binding assay. Crude membrane suspensions were prepared for the NK1 and SERT radioligand binding assays from U373 cells or recombinant HEK-293 cells expressing hSERT, respectively. […] The medium is removed from the flasks and the cells rinsed with HBSS without Ca and without Mg. The cells are then incubated for 5-10 minutes in 10 mM Tris-Cl, pH 7.5, 5 mM EDTA before the cells are lifted with a combination of pipetting and scraping, as needed. To prepare membranes, the cell suspension is collected into centrifuge bottles and homogenized for 30 seconds with a Polytron homogenizer. The suspension is centrifuged for 30 min 32,000×g, 4° C., then the supernatant is decanted and the pellet resuspended and homogenized in 50 mM Tris-Cl, pH 7.5, 1 mM EDTA for 10 seconds. The suspension is then centrifuged again for 30 min 32,000×g, 4° C. The supernatant is decanted and the pellet resuspended in 50 mM Tris-Cl, pH 7.5, 1 mM EDTA and briefly homogenized. A Bradford assay (Bio-rad) is performed and the membrane preparation diluted to 2 mg/ml with 50 mM Tris-Cl, pH 7.5, 1 mM EDTA. Aliquots are prepared, and then frozen and stored at −80° C.
(§2) NK1 radioligand binding assay. Compounds are dissolved in 100% DMSO at a concentration 100× the desired highest assay concentration, serially diluted 1:3 in 100% DMSO, and 0.6 ul/well of each solution is dispensed to a Nunc polypropylene, round bottom, 384 well plate. […] The contents of the assay plate are then transferred to a Millipore MultiscreenHTS GF/B filter plate which has been pretreated with 0.5% PEI for at least one hour. The plate is vacuum filtered and washed with 7 washes of 100 ul/well of 20 mM Tris-Cl, pH 7.5, 0.5% (w/v) BSA chilled to 4° C. The filtration and washing is completed in less than 90 s. The plates are air-dried overnight, 12 ul/well of MicroScint scintillation fluid added, and the plates counted in a Trilux.
(§3) Data analysis. […] Each plate is run in triplicate, and the concentration response curve thus generated is fit using the four-parameter dose response equation, Y=Bottom+(Top-Bottom)/(1+10^((Log IC50−X)*HillSlope)) in order to determine the IC50 value for each compound. The radioligand concentration chosen for each assay corresponds to the Kd concentration determined through saturation binding analysis for each assay.

[2] = target: T2, hSERT (Homo sapiens, UniProt P31645); test: SERT radioligand binding assay
T2 construct: expressed in transfected cells; host or cells: HEK-293 cells (crude membranes)
T2 sequence (P31645 whole entry): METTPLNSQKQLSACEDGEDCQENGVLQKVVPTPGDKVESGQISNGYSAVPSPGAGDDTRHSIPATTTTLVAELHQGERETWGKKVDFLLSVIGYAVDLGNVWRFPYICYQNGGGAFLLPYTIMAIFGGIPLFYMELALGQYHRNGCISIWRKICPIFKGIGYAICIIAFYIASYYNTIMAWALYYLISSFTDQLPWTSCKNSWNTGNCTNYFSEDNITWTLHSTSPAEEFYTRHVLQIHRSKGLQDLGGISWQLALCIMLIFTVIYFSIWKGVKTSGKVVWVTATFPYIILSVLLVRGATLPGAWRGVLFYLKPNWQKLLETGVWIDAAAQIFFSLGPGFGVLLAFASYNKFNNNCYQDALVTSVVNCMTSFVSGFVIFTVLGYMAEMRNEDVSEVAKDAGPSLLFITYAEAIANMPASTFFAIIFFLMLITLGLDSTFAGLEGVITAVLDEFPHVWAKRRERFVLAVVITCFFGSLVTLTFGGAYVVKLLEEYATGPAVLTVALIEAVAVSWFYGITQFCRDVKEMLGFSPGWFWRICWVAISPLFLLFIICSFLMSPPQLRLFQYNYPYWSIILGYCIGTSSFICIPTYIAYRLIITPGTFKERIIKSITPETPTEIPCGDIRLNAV
Experimental: as §1
as §2, with “SERT” for “NK1”, “0.4” for “0.6”, “50” for “20”, “120 mM NaCl, 5 mM KCl” for “0.5% (w/v) BSA”
as §3

[3] = HEK-hSERT membrane preparation, [125I]RTI-55, read-out: SERT IC50

T1 sequence (P25103 whole entry): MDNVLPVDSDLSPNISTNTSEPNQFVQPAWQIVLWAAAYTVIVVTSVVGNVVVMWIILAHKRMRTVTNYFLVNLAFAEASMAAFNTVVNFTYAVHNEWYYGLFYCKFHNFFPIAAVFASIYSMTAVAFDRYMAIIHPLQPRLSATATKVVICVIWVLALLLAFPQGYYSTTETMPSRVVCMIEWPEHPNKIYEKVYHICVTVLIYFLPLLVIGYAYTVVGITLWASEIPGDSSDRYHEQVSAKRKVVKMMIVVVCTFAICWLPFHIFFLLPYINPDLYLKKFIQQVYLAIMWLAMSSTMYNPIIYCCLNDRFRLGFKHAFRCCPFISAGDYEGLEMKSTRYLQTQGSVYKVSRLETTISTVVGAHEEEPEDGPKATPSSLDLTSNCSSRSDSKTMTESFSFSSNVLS

SMILES | IC50 [1] [nM] | IC50 [2] [nM] | IC50 [2, 3] [nM]
CN1CCC(COCc2cc(C(F)(F)F)cc(Cl)n2)(c2cccnc2)CC1 [Example 35, 2-chloro-6-(((1-methyl-4-(pyridin-3-yl)piperidin-4-yl)methoxy)methyl)-4-(trifluoromethyl)pyridine] | > 300 | 0.01 to 100 | 
CN1CCC(COCc2cc(C(F)(F)F)cc(N3CCCC3)n2)(c2ccccc2F)CC1 [Example 55] | 0.01 to 100 |  | 0.01 to 100
COc1ccc(-c2cc(C(F)(F)F)cc(COCC3(c4ccc(F)cc4)CCN(C)CC3)n2)cc1 [Example 74] | 0.01 to 100 | 0.01 to 100 | 
CN1CCC(COCc2cc(C(F)(F)F)cc(-c3ccc[nH]3)n2)(c2ccc(F)cc2)CC1 [Example 66] | 0.01 to 100 | 0.01 to 100 | 
CC(OCC1(c2ccccc2)CCNCC1)c1cc(C(F)(F)F)cc(C(F)(F)F)n1 (stereo not drawn) [Example 27, 2-(1-((4-phenylpiperidin-4-yl)methoxy)ethyl)-4,6-bis(trifluoromethyl)pyridine] | 0.01 to 100 |  | 0.01 to 100
CN1CCC(COCc2cc(C(F)(F)F)cc(N3CC[C@@H](F)C3)n2)(c2ccc(F)cc2)CC1 [Example 92] | 0.01 to 100 | 0.01 to 100 | 
CN1CCC(COCc2cc(N3CCCC3)cc(C(F)(F)F)n2)(c2ccccc2)CC1 [Example 48] | 0.01 to 100 | 0.01 to 100 | 
CC(OCC1(c2ccc(F)cc2)CCN(C)CC1)c1cc(C(F)(F)F)cc(N2CC[C@@H](F)C2)n1 (stereo partly drawn) [Example 87] | 0.01 to 100 |  | 0.01 to 100
Cc1cc(C(F)(F)F)cc(COCC2(c3ccc(F)cc3)CCN(C)CC2)n1 [Example 36, 2-(((4-(4-fluorophenyl)-1-methylpiperidin-4-yl)methoxy)methyl)-6-methyl-4-(trifluoromethyl)pyridine] | 0.01 to 100 | 0.01 to 100 | 
COc1cc(COCC2(c3ccc(F)cc3)CCN(C)CC2)cc(C(F)(F)F)n1 [Example 80] | 0.01 to 100 | 0.01 to 100 | 
CN1CCC(COCc2cc(C(F)(F)F)cc(N3CC[C@H](F)C3)n2)(c2ccc(F)cc2)CC1 [Example 91] | 0.01 to 100 | 0.01 to 100 | 
CN1CCC(COCc2cc(C(F)(F)F)cc(-c3ccc(F)cc3)n2)(c2ccccc2)CC1 [Example 42] | 0.01 to 100 | 0.01 to 100 | 
Cc1ccc(-c2cc(C(F)(F)F)cc(COCC3(c4ccccc4)CCNCC3)n2)cc1 [Example 4] | 0.01 to 100 |  | 0.01 to 100
CN1CCC(COCc2cncc(-c3ccco3)c2)(c2ccccc2)CC1 [Example 49] | > 300 | 0.01 to 100 | 
CN1CCC(COCc2cc(C(F)(F)F)cc(-c3ccc(C#N)cc3)n2)(c2ccccc2)CC1 [Example 41] | 0.01 to 100 | 0.01 to 100 | 
CCN(CC)c1cc(C(F)(F)F)cc(COCC2(c3ccc(F)cc3)CCNCC2)n1 [Example 22] | 0.01 to 100 |  | 0.01 to 100
Cc1cc(-c2cc(C(F)(F)F)cc(COCC3(c4ccccc4)CCN(C)CC3)n2)ccc1C#N [Example 60] | 0.01 to 100 | 0.01 to 100 | 
Fc1ccc(-c2cc(C(F)(F)F)cc(COCC3(c4ccccc4)CCNCC3)n2)cc1 [Example 5] | 0.01 to 100 |  | 0.01 to 100
CN1CCC(COCc2cc(C(F)(F)F)cc(-c3ccc(C#N)cc3)n2)(c2cccnc2)CC1 [Example 98] | 0.01 to 100 | 0.01 to 100 | 
COc1cc(C(C)OCC2(c3ccc(F)cc3)CCN(C)CC2)cc(-c2ccc(C#N)cc2)n1 (stereo not drawn) [Example 79] | 0.01 to 100 | 0.01 to 100 | 
CC(OCC1(c2ccc(F)cc2)CCN(C)CC1)c1cc(C(F)(F)F)cc(-c2ccc(C#N)cc2)n1 (stereo not drawn) [Example 96] | 0.01 to 100 | 0.01 to 100 | 
CN1CCC(COCc2cc(C(F)(F)F)cc(-c3cccn3C(=O)OC(C)(C)C)n2)(c2ccc(F)cc2)CC1 [Example 65] | 0.01 to 100 | 100 to 300 | 
CC1CCCN1c1cc(C(F)(F)F)cc(COCC2(c3ccc(F)cc3)CCN(C)CC2)n1 (stereo not drawn) [Example 90] | 0.01 to 100 | 0.01 to 100 | 
CC(OCC1(c2ccc(F)cc2)CCN(C)CC1)c1cc(C(F)(F)F)cc(N2CCC[C@@H]2C)n1 (stereo partly drawn) [Example 95] | 0.01 to 100 | 0.01 to 100 | 
N#Cc1ccc(-c2cc(C(F)(F)F)cc(COCC3(c4ccc(F)cc4)CCNCC3)n2)cc1 [Example 7] | 0.01 to 100 |  | 0.01 to 100
N#CC1CCN(c2cc(C(F)(F)F)cc(COCC3(c4ccc(F)cc4)CCNCC3)n2)CC1 [Example 17] | 0.01 to 100 |  | 0.01 to 100
N#Cc1ccc(-c2cncc(COCC3(c4ccccc4)CCNCC3)c2)cc1 [Example 25, 4-(5-(((4-phenylpiperidin-4-yl)methoxy)methyl)pyridine-3yl)benzonitrile] | > 300 |  | 0.01 to 100
CC(OCC1(c2ccccc2)CCNCC1)c1cc(C(F)(F)F)cc(-c2ccc(C#N)cc2)n1 (stereo not drawn) [Example 8] | 0.01 to 100 |  | 0.01 to 100
CCC(CC)Nc1cc(C(F)(F)F)cc(COCC2(c3ccc(F)cc3)CCNCC2)n1 [Example 21] | 0.01 to 100 |  | 0.01 to 100
CN1CCC(COCc2cc(C(F)(F)F)cc(-c3ccc(C#N)cc3)n2)(c2ccc(F)cc2)CC1 [Example 47] | 0.01 to 100 | 0.01 to 100 | 
